In US11802114B2, “Compounds and methods for detection of superoxide” (Promega Corporation, priority 2021, dated 2023):

Key:
[1] = system: Human hepatocarcinoma cells (Hep G2); experiment: Detection of superoxide in cells; format: cell-based; settings: probe 12.5 uM, 1 hour at 37° C., FIG. 4
Protocol: Human hepatocarcinoma cells (Hep G2) were plated into wells of 96-well white-walled assay tissue culture plates. Plated cells were incubated overnight in a humidified tissue culture incubator at 37° C. with 5% CO2. The following day the superoxide probe, Compound 1 (6-(4-hydroxy-3,5-dimethoxyphenoxy)benzo[d]thiazole-2-carbonitrile), was added to the cells in culture medium at a final concentration of 12.5 uM. Subsequently, dimethoxynaphthoquinone (DMNQ; 50 μM) or antimycin A (10 μM) diluted in culture medium was added to the reaction wells and the assay plate(s) were incubated for 1 hour in a humidified tissue culture incubator at 37° C. with 5% C02. For luciferin detection, the luciferin-utilizing luciferase enzyme, UltraGlo (Promega Corporation), was prepared by mixing Luciferin Detection Reagent (Promega), Reconstitution Buffer (Promega), and d-Cysteine (Promega), and one volume was added to the reaction. The plate was mixed using an orbital plate shaker, and luminescence was measured using a GloMax® luminometer.

superoxide = experiment: Cell-free detection of and specificity for superoxide (luciferase luminescence); format: biochemical; settings: probe 25 μM in PBS, FIG. 3
Protocol: The superoxide probe, Compound 1 (6-(4-hydroxy-3,5-dimethoxyphenoxy)benzo[d]thiazole-2-carbonitrile), was diluted into PBS to 25 μM into wells of a 96-well white-walled assay plate. Subsequently, generators of reactive oxygen and nitrogen species were diluted in PBS and added to the assay plate. The plate mixed using an orbital plate shaker for 5 minutes followed by a 30-minute incubation at room temperature protected from light. For luciferin detection, the luciferin-utilizing luciferase enzyme, UltraGlo (Promega Corporation), was prepared by mixing Luciferin Detection Reagent (Promega), Reconstitution Buffer (Promega), and d-Cysteine (Promega), and one volume was added to the reaction. The plate was mixed using an orbital plate shaker, and luminescence was measured using a GloMax® luminometer. Data are shown in FIG. 3; the blank includes PBS only; HX=hypoxanthine; XO=xanthine oxidase; and SOD=superoxide dismutase. […] This signal decreased in the presence of superoxide dismutase, confirming that superoxide is the source of the signal.

[2] = system: RAW 247.6 macrophage cell line; experiment: Detection of PMA-induced superoxide production by macrophages; format: cell-based; settings: 50 μl of 50 μM Compound 18 (FIG. 6A) or 100 μM Compound 20 (FIG. 6B), 2 hours at 37° C.; for luminescence signal with PMA treatment: 20 μM PMA
Protocol: Production of superoxide by macrophages plays an important role in immune response and inflammation. Superoxide is produced by nicotinamide adenine dinucleotide phosphate (NADPH) oxidases (known as NOX enzymes) and is induced by PMA (4β-phorbol-12-myristate-13-acetate). Here is shown an example of measuring PMA-induced superoxide production in RAW 247.6 macrophage cell line. RAW 247.6 cells were plated overnight in DMEM medium with 10% FBS. To start the experiment, the medium was removed, cells were washed once with PBS, and 50 μl of PBS containing 5 mM glucose, 1 mM MgCl2, 0.5 mM CaCl2, and 0.05% BSA was added to the cells in the presence or absence of 20 μM PMA. To measure production of superoxide, 50 μl of 50 μM Compound 18 (FIG. 6A) or 100 μM Compound 20 (FIG. 6B) was added to the cells. Cells were treated for 2 hours at 37° C. with luciferin production measured by adding equal volume of Luciferin Detection Reagent with esterases, and luminescence read after 20 minutes incubation at room temperature.

[3] = system: RAW 247.6 macrophage cells; experiment: Detection of superoxide production in kinetic mode (media sampling); format: cell-based; settings: 50 μM probe, 20 μM PMA, 10, 20, 30 and 60 minutes, FIG. 7
Protocol: RAW 247.6 macrophage cells were plated at 30,000 cells per well overnight in DMEM medium with 10% FBS. The following day, the medium was removed, and cells were washed with PBS. 100 μl PBS containing 5 mM glucose, 1 mM MgCl2, 0.5mM CaCl2, 0.05% BSA, and 50 μM Compound 20 were added to the cells in the presence or absence of 20 μM PMA. The cells were placed back at 37° C. in tissue culture incubator. At different time points (10, 20, 30 and 60 minutes), 10 μl was removed from the samples, mixed with 10 μl of Luciferin Detection Reagent with esterases, and luminescence read following a 20 minute incubation at room temperature.

xanthine oxidase = experiment: Detection of xanthine oxidase activity in vitro; format: biochemical; settings: 25 μl of 75 μM probe, FIG. 5
Text: Xanthine oxidase (XO) is an enzyme that catalyzes the oxidation of hypoxanthine or xanthine to uric acid and superoxide. XO is normally found in liver and jejunum and plays an important role in the catabolism of purines. During severe liver damage, xanthine oxidase is released into blood and can be used as a marker for liver damage. Here is shown an example of measuring xanthine oxidase activity using pro-luciferin compounds described herein. Purified xanthine oxidase was 3× fold serially diluted in 0.1M Tris (pH7.5). 25 μl of diluted enzyme was transferred into wells of a 96-well assay plate, and the reaction was started by adding 25 μl of 300 μM xanthine and 25 μl of 75 μM Compound 20. After 10, 20, 30, and 60 minutes incubations at 37° C., 75 μl of Luciferin Detection Reagent containing esterases was added to the samples, and luminescence was read after additional 20 minutes incubation at room temperature.

Row | SMILES | luminescence signal when cells were treated with DMNQ ([1]; DMNQ 50 μM) | luminescence signal when cells were treated with antimycin A ([1]; antimycin A 10 μM) | luminescence signal in the presence of NONOate (superoxide; 30-minute incubation) | luminescence signal in the presence of Rose Bengal (generates singlet oxygen) (superoxide; 30-minute incubation) | luminescence signal in the presence of hydrogen peroxide (superoxide; 30-minute incubation) | luminescence signal in the presence of sodium nitrite (superoxide; 30-minute incubation) | luminescence signal in the presence of superoxide dismutase (superoxide; HX + XO + SOD) | luminescence signal in the presence of HX and XO (superoxide; hypoxanthine + xanthine oxidase (superoxide generator), 30-minute incubation at room temperature) | luminescence signal with PMA treatment [2] | luminescence signal in the presence of cells compared to medium only control [2] | luminescence signal over time in cells treated with PMA [3] | increase in luminescence signal versus xanthine oxidase concentration and time (xanthine oxidase; 300 μM xanthine, 10, 20, 30, and 60 minutes at 37° C.) | increase in luminescence signal, dependence on substrate (xanthine oxidase; 25 μl of 300 μM xanthine, serially diluted XO, 37° C.)
1 | COc1cc(Oc2ccc3nc(C#N)sc3c2)cc(OC)c1O [Compound 1, 6-(4-hydroxy-3,5-dimethoxyphenoxy)benzo[d]thiazole-2-carbonitrile] | increase in signal | increase in signal | Little to no signal | Little to no signal | Little to no signal | Little to no signal | decreased | strong signal |  |  |  |  | 
2 | CN(CCN(C)C(=O)Oc1ccc2nc(C3=N[C@@H](C(=O)O)CS3)sc2c1)C(=O)Oc1ccc(O)c(O)c1 [Compound 18, (S)-2-(6-(((2-(((3,4-dihydroxyphenoxy)carbonyl)(methyl)amino)ethyl)(methyl)carbamoyl)oxy)benzo[d]thiazol-2-yl)-4,5-dihydrothiazole-4-carboxylic acid] |  |  |  |  |  |  |  |  | increased significantly | higher luminescence signal |  |  | 
3 | COC(=O)[C@H]1CSC(c2nc3ccc(OC(=O)N(C)CCN(C)C(=O)Oc4ccc(OC(C)=O)c(OC(C)=O)c4)cc3s2)=N1 [Compound 20, (S)-4-(((2-((((2-(4-(methoxycarbonyl)-4,5-dihydrothiazol-2-yl)benzo[d]thiazol-6-yl)oxy)carbonyl)(methyl)amino)ethyl)(methyl)carbamoyl)oxy)-1,2-phenylene diacetate] |  |  |  |  |  |  |  |  | increased significantly | higher luminescence signal | time dependent increase in signal | linear with respect to xanthine oxidase concentration and time | depended on the presence of the xanthine oxidase substrate, xanthine
